Results: patent US20250388593A1 (MITSUBISHI TANABE PHARMA CORPORATION, priority 2023, published 2025)

These molecules were tested against CRBN truncate (318-426) (Homo sapiens (Human), UniProt Q96SW2) (assay: Measurement of molecular interactions using surface plasmon resonance (SPR), Biacore T200). Details: 25° C., immobilized CRBN truncate, upper limit of measurement 200 μM.
Type: binding
Summary of the method: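 C-terminally Avi-tagged CRBN (318-426) captured on a streptavidin SA chip on a Biacore T200. Running buffer 10 mM HEPES pH 7.5, 150 mM NaCl, 1 mM TCEP, 0.005% Tween 20, 2% DMSO; 60 s contact, 120 s dissociation.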

CRBN truncate (318-426), sequence (Q96SW2 318-426): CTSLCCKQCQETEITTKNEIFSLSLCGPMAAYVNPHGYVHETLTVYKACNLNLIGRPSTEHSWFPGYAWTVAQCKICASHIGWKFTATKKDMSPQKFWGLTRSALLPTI

**Q.** How did the Kd turn out when `Cc1sc2c(c1C)C(c1ccc(Cl)cc1)=N[C@@H](CC(=O)NCCCCCCc1cccc3c(C(=O)N4CCC5(CCCC(=O)NC5=O)C4)cccc13)c1nnc(C)n1-2` (stereo partly drawn) [Example 324, 2-[(9S)-7-(4-chlorophenyl)-4,5,13-trimethyl-3-thia-1,8,11,12-tetraazatricyclo[8.3.0.02,6]trideca-2(6),4,7,10,12-pentaen-9-yl]-N-[6-[5-(6,8-dioxo-2,7-diazaspiro[4.6]undecane-2-carbonyl)naphthalen-1-yl]hexyl]acetamide] was run?
**A.** Its Kd is < 50 µM.

**Q.** With `Cc1sc2c(c1C)C(c1ccc(Cl)cc1)=N[C@@H](CC(=O)NCCCCCCn1ccc3c(C(=O)N4CCC5(CCCC(=O)NC5=O)CC4)cccc31)c1nnc(C)n1-2` [Example 326, 2-[(9S)-7-(4-chlorophenyl)-4,5,13-trimethyl-3-thia-1,8,11,12-tetraazatricyclo[8.3.0.02,6]trideca-2(6),4,7,10,12-pentaen-9-yl]-N-[6-[4-(7,9-dioxo-3,8-diazaspiro[5.6]undecane-3-carbonyl)indol-1-yl]hexyl]acetamide] as the molecule, how does the Kd read?
**A.** The Kd was < 50 µM.

**Q.** For `Cc1sc2c(c1C)C(c1ccc(Cl)cc1)=N[C@@H](CC(=O)NCCCCCCc1ccc(C(=O)N3CCN(C4CCCC(=O)NC4=O)C(=O)C3)cc1Cl)c1nnc(C)n1-2` (stereo partly drawn) [Example 327, N-[6-[2-chloro-4-[4-(2,7-dioxoazepan-3-yl)-3-oxopiperazine-1-carbonyl]phenyl]hexyl]-2-[(9S)-7-(4-chlorophenyl)-4,5,13-trimethyl-3-thia-1,8,11,12-tetraazatricyclo[8.3.0.02,6]trideca-2(6),4,7,10,12-pentaen-9-yl]acetamide], which Kd is on record?
**A.** Its Kd is < 50 µM.

**Q.** Which Kd does the source give for `Cc1sc2c(c1C)C(c1ccc(Cl)cc1)=N[C@@H](CC(=O)NCCCCCCCCNC(=O)c1cc3c(N4CCC5(CCCC(=O)NC5=O)C4)ncnc3n1C)c1nnc(C)n1-2` (stereo partly drawn) [Example 328, N-[8-[[2-[(9S)-7-(4-Chlorophenyl)-4,5,13-trimethyl-3-thia-1,8,11,12-tetraazatricyclo[8.3.0.02,6]trideca-2(6),4,7,10,12-pentaen-9-yl]acetyl]amino]octyl]-4-(6,8-dioxo-2,7-diazaspiro[4.6]undecan-2-yl)-7-methylpyrrolo[2,3-d]pyrimidine-6-carboxamide] here?
**A.** Its Kd is < 50 µM.

**Q.** `Cc1sc2c(c1C)C(c1ccc(Cl)cc1)=N[C@@H](CC(=O)NCCCCCCCCNC(=O)c1ccc3nc(N4CCC5(CCCC(=O)NC5=O)C4)sc3c1)c1nnc(C)n1-2` (stereo partly drawn) [Example 329, N-[8-[[2-[(9S)-7-(4-chlorophenyl)-4,5,13-trimethyl-3-thia-1,8,11,12-tetraazatricyclo[8.3.0.02,6]trideca-2(6),4,7,10,12-pentaen-9-yl]acetyl]amino]octyl]-2-(6,8-dioxo-2,7-diazaspiro[4.6]undecan-2-yl)-1,3-benzothiazole-6-carboxamide] was tested. Which Kd did it give?
**A.** Its Kd is < 50 µM.

**Q.** Which Kd does the source give for `Cc1sc2c(c1C)C(c1ccc(Cl)cc1)=N[C@@H](CC(=O)NCCCCCCCCNC(=O)c1ccc(N3CC4(CC(=O)N(C5CCC(=O)NC5=O)C4=O)C3)nc1)c1nnc(C)n1-2` (stereo partly drawn) [Example 330, N-[8-[[2-[(9S)-7-(4-chlorophenyl)-4,5,13-trimethyl-3-thia-1,8,11,12-tetraazatricyclo[8.3.0.02,6]trideca-2(6),4,7,10,12-pentaen-9-yl]acetyl]amino]octyl]-6-[6-(2,6-dioxopiperidin-3-yl)-5,7-dioxo-2,6-diazaspiro[3.4]octan-2-yl]pyridine-3-carboxamide] here?
**A.** Its Kd is < 50 µM.

**Q.** With `Cc1sc2c(c1C)C(c1ccc(Cl)cc1)=N[C@@H](CC(=O)NCCCCCCCCNC(=O)CN1CC3(CC(=O)N(C4CCC(=O)NC4=O)C3=O)C1)c1nnc(C)n1-2` (stereo partly drawn) [Example 331, 2-[(9S)-7-(4-chlorophenyl)-4,5,13-trimethyl-3-thia-1,8,11,12-tetraazatricyclo[8.3.0.02,6]trideca-2(6),4,7,10,12-pentaen-9-yl]-N-[8-[[2-[6-(2,6-dioxopiperidin-3-yl)-5,7-dioxo-2,6-diazaspiro[3.4]octan-2-yl]acetyl]amino]octyl]acetamide] as the molecule, how does the Kd read?
**A.** Its Kd is < 50 µM.

**Q.** For `Cc1sc2c(c1C)C(c1ccc(Cl)cc1)=N[C@@H](CC(=O)NCCCCCCCCNC(=O)Cn1c(=O)n(C3CCCC(=O)NC3=O)c3ccccc31)c1nnc(C)n1-2` (stereo partly drawn) [Example 332, 2-[(9S)-7-(4-chlorophenyl)-4,5,13-trimethyl-3-thia-1,8,11,12-tetraazatricyclo[8.3.0.02,6]trideca-2(6),4,7,10,12-pentaen-9-yl]-N-[8-[[2-[3-(2,7-dioxoazepan-3-yl)-2-oxobenzimidazol-1-yl]acetyl]amino]octyl]acetamide], which Kd is on record?
**A.** Its Kd is < 50 µM.

**Q.** How did the Kd turn out when `Cc1sc2c(c1C)C(c1ccc(Cl)cc1)=N[C@@H](CC(=O)NCCCCCCCCNC(=O)CCc1cccc3c1n(C)c(=O)n3C1CCCC(=O)NC1=O)c1nnc(C)n1-2` (stereo partly drawn) [Example 333, N-[8-[[2-[(9S)-7-(4-chlorophenyl)-4,5,13-trimethyl-3-thia-1,8,11,12-tetraazatricyclo[8.3.0.02,6]trideca-2(6),4,7,10,12-pentaen-9-yl]acetyl]amino]octyl]-3-[1-(2,7-dioxoazepan-3-yl)-3-methyl-2-oxobenzimidazol-4-yl]propanamide] was run?
**A.** The Kd was < 50 µM.

**Q.** How did the Kd turn out when `Cc1sc2c(c1C)C(c1ccc(Cl)cc1)=N[C@@H](CC(=O)NCCCCCCCCNC(=O)CCc1nn(C3CCCC(=O)NC3=O)c3ccccc13)c1nnc(C)n1-2` (stereo partly drawn) [Example 334, N-[8-[[2-[(9S)-7-(4-chlorophenyl)-4,5,13-trimethyl-3-thia-1,8,11,12-tetraazatricyclo[8.3.0.02,6]trideca-2(6),4,7,10,12-pentaen-9-yl]acetyl]amino]octyl]-3-[1-(2,7-dioxoazepan-3-yl)indazol-3-yl]propanamide] was run?
**A.** The Kd was < 50 µM.

**Q.** Which Kd does the source give for `Cc1sc2c(c1C)C(c1ccc(Cl)cc1)=N[C@@H](CC(=O)NCCCCCCCCNC(=O)c1ccc(N3CCC4(CCCC(=O)NC4=O)CC3=O)nc1)c1nnc(C)n1-2` (stereo partly drawn) [Example 335, N-[8-[[2-[(9S)-7-(4-chlorophenyl)-4,5,13-trimethyl-3-thia-1,8,11,12-tetraazatricyclo[8.3.0.02,6]trideca-2(6),4,7,10,12-pentaen-9-yl]acetyl]amino]octyl]-6-(4,7,9-trioxo-3,8-diazaspiro[5.6]dodecan-3-yl)pyridine-3-carboxamide] here?
**A.** Its Kd is ≥ 100 µM.

**Q.** How did the Kd turn out when `Cc1sc2c(c1C)C(c1ccc(Cl)cc1)=N[C@@H](CC(=O)NCCCCCCCCNC(=O)CCc1ccc(-c3nn(C4CCCC(=O)NC4=O)c(=O)n3C)cc1)c1nnc(C)n1-2` (stereo partly drawn) [Example 336, N-[8-[[2-[(9S)-7-(4-chlorophenyl)-4,5,13-trimethyl-3-thia-1,8,11,12-tetraazatricyclo[8.3.0.02,6]trideca-2(6),4,7,10,12-pentaen-9-yl]acetyl]amino]octyl]-3-[4-[1-(2,7-dioxoazepan-3-yl)-4-methyl-5-oxo-1,2,4-triazol-3-yl]phenyl]propanamide] was run?
**A.** Its Kd is < 50 µM.

**Q.** Which Kd does the source give for `Cc1sc2c(c1C)C(c1ccc(Cl)cc1)=N[C@@H](CC(=O)NCCCCCCCCNC(=O)c1ccc3nc(N4CC5(CC(=O)N(C6CCC(=O)NC6=O)C5=O)C4)sc3c1)c1nnc(C)n1-2` (stereo partly drawn) [Example 337, N-[8-[[2-[(9S)-7-(4-chlorophenyl)-4,5,13-trimethyl-3-thia-1,8,11,12-tetraazatricyclo[8.3.0.02,6]trideca-2(6),4,7,10,12-pentaen-9-yl]acetyl]amino]octyl]-2-[6-(2,6-dioxopiperidin-3-yl)-5,7-dioxo-2,6-diazaspiro[3.4]octan-2-yl]-1,3-benzothiazole-6-carboxamide] here?
**A.** Its Kd is < 50 µM.

**Q.** Which Kd does the source give for `Cc1sc2c(c1C)C(c1ccc(Cl)cc1)=N[C@@H](CC(=O)NCCCCCCCCNC(=O)c1ccc(OC3CCCC(=O)NC3=O)nc1)c1nnc(C)n1-2` (stereo partly drawn) [Example 338, N-[8-[[2-[(9S)-7-(4-chlorophenyl)-4,5,13-trimethyl-3-thia-1,8,11,12-tetraazatricyclo[8.3.0.02,6]trideca-2(6),4,7,10,12-pentaen-9-yl]acetyl]amino]octyl]-6-(2,7-dioxoazepan-3-yl)oxypyridine-3-carboxamide] here?
**A.** Its Kd is < 50 µM.

**Q.** `Cc1sc2c(c1C)C(c1ccc(Cl)cc1)=N[C@@H](CC(=O)NCCCCCCCCNC(=O)COc1ccc(C#N)c(N3CCC4(CCCC(=O)NC4=O)C3)c1)c1nnc(C)n1-2` (stereo partly drawn) [Example 339, 2-[(9S)-7-(4-chlorophenyl)-4,5,13-trimethyl-3-thia-1,8,11,12-tetraazatricyclo[8.3.0.02,6]trideca-2(6),4,7,10,12-pentaen-9-yl]-N-[8-[[2-[4-cyano-3-(6,8-dioxo-2,7-diazaspiro[4.6]undecan-2-yl)phenoxy]acetyl]amino]octyl]acetamide] was tested. Which Kd did it give?
**A.** The Kd was < 50 µM.

**Q.** For `Cc1sc2c(c1C)C(c1ccc(Cl)cc1)=N[C@@H](CC(=O)NCCCCCCCCNC(=O)COc1ccccc1-c1cn(C3CCCC(=O)NC3=O)nn1)c1nnc(C)n1-2` (stereo partly drawn) [Example 340, 2-[(9S)-7-(4-chlorophenyl)-4,5,13-trimethyl-3-thia-1,8,11,12-tetraazatricyclo[8.3.0.02,6]trideca-2(6),4,7,10,12-pentaen-9-yl]-N-[8-[[2-[2-[1-(2,7-dioxoazepan-3-yl)triazol-4-yl]phenoxy]acetyl]amino]octyl]acetamide], which Kd is on record?
**A.** The Kd was < 50 µM.

**Q.** Which Kd does the source give for `Cc1sc2c(c1C)C(c1ccc(Cl)cc1)=N[C@@H](CC(=O)NCCCCCCCCNC(=O)CCc1ccc3c(c1)oc(=O)n3C1CCCC(=O)NC1=O)c1nnc(C)n1-2` (stereo partly drawn) [Example 341, N-[8-[[2-[(9S)-7-(4-chlorophenyl)-4,5,13-trimethyl-3-thia-1,8,11,12-tetraazatricyclo[8.3.0.02,6]trideca-2(6),4,7,10,12-pentaen-9-yl]acetyl]amino]octyl]-3-[3-(2,7-dioxoazepan-3-yl)-2-oxo-1,3-benzoxazol-6-yl]propanamide] here?
**A.** The Kd was < 50 µM.

**Q.** With `Cc1sc2c(c1C)C(c1ccc(Cl)cc1)=N[C@@H](CC(=O)NCCCCCCCCNC(=O)CCc1ccc3c(c1)sc(=O)n3C1CCCC(=O)NC1=O)c1nnc(C)n1-2` (stereo partly drawn) [Example 342, N-[8-[[2-[(9S)-7-(4-chlorophenyl)-4,5,13-trimethyl-3-thia-1,8,11,12-tetraazatricyclo[8.3.0.02,6]trideca-2(6),4,7,10,12-pentaen-9-yl]acetyl]amino]octyl]-3-[3-(2,7-dioxoazepan-3-yl)-2-oxo-1,3-benzothiazol-6-yl]propanamide] as the molecule, how does the Kd read?
**A.** The Kd was < 50 µM.
